Measured values taken from PMC4085509, “Extended treatment of Cushing’s disease with pasireotide: results from a 2-year, Phase II study” (Pituitary, 2013).
Read-outs that look alike come from different tables or passages of the source. *1 amine or outer side, *2 acyl side, *3 side chain or, on linkers, in order; H or OH if unused. Where a SMILES comes first, the peptide text is derived from it. Side-chain parts run from the residue outwards. [ ]: non-standard residue; d: D form. The star is where a group is joined. Ethylenediamine = C(CN[*:2])N[*:1]; Hyp = O=C(O)[C@@H]1C[C@@H](O)CN1; Phg = N[C@H](C(=O)O)c1ccccc1; CO = O=C([*:1])[*:2]; Bn = c1ccc(C*)cc1

What was measured:
[1] = system: urinary free cortisol (UFC); assay: 24-h urinary free cortisol (UFC), ECLIA after dichloromethane extraction, extension study; assay type: in vivo, human
Description: (§1) The primary efficacy outcome was the proportion of patients with normalized UFC levels after 6 months of treatment (normal UFC range: 55–276 nmol/24 h; 20–100 μg/24 h). Secondary objectives included assessment of the safety and tolerability of multiple doses of pasireotide and trough plasma concentrations of pasireotide after chronic dosing.
Patients were classified as ‘UFC responders’ if their mean UFC level at month 6 was in the normal range; as ‘UFC reducers’ if their mean UFC level at month 6 was lower than that at core study baseline but not within normal limits; and as ‘UFC non-reducers’ if their mean UFC level at month 6 was equal to or higher than that at core study baseline or if the mean UFC level at month 6 was missing. Patients who discontinued prior to month 6 were classified as non-responders.
(§2) Blood samples for serum cortisol, plasma ACTH and pharmacokinetic assessments were collected before the morning pasireotide dose on study visit days. UFC assays were conducted in two central laboratories, one in Europe and the other in the US. Serum cortisol and plasma ACTH assays were assessed centrally by one laboratory (see Supplementary Material for further details).
(§3) UFC levels were measured with two 24-hour urine specimens collected in the 48 hours prior to core baseline and at study visits during the extension study. Serum cortisol was measured with electrochemiluminescence immunoassay (ECLIA), using the Elecsys® cortisol reagent kit (Roche Diagnostics, Indianapolis, IN, USA), which has a lower limit of quantification (LLOQ) of […] (0.018 μg/dL) and intra- and inter-assay coefficients of variation of 1.2% and 1.4%, respectively. UFC levels were measured with ECLIA, using the Elecsys® cortisol reagent kit with prior dichloromethane extraction to reduce the amount of cortisol metabolites and conjugates.

serum cortisol = assay: Serum cortisol, ECLIA (Elecsys), pre-morning-dose samples; assay type: in vivo, human
Description: as §2, §3

plasma ACTH = assay: Plasma ACTH, Immulite 2000 ACTH kit, pre-morning-dose samples; assay type: in vivo, human; settings: Day 15, n=18, normal <10
Description: as §2
(§4) Plasma ACTH was assayed with the Immulite® 2000 ACTH kit (DPC, Los Angeles, CA, USA), which has a lower limit of detection of 9 pg/mL (1.98 pmol/L) and intra- and inter-assay coefficients of variation of 7.7% and 8.5%, respectively. Pasireotide plasma concentrations were measured using a validated radioimmunoassay with an LLOQ of 150 pg/mL.

[2] = Trough plasma concentration of pasireotide, radioimmunoassay; assay type: in vivo, human; settings: for level at 4320 h: human, read-out: Ctrough, mean ± SD
Description: as §1, §2, §4

[3] = system: patients with Cushing's disease; assay: Adverse events and discontinuations in the extension study; assay type: in vivo, human
Description: (§5) Safety was assessed by recording all AEs, as well as by regular monitoring of vital signs, physical condition, body weight, hematology and blood chemistry. HbA1c levels were recorded at extension baseline and then every 16 weeks. HbA1c categories were: <upper limit of normal (ULN; normal defined as <5.7 %), between the ULN and 7 %, between 7 and 9 %, and over 9 %.

[4] = HbA1c and fasting plasma glucose monitoring; assay type: in vivo, human
Description: as §5
(§6) Patient visits occurred every 2 weeks for the first 3 months and then every 3 months for assessments of UFC, serum cortisol, plasma ACTH, hematology, blood chemistry, HbA1c, electrocardiogram (ECG) and vital signs. Patients were referred to a diabetes specialist for evaluation and appropriate management if any of the following were present: […]

[5] = system: patients with Cushing's disease; assay: Electrocardiogram intervals; assay type: in vivo, human; settings: number of patients
Excerpt: as §6

sst2 = system: sst2; set-up: method as in PMID 11980628; settings: cited from earlier work
sst3 = system: sst3; set-up: method as in PMID 11980628; settings: cited from earlier work
sst5 = system: sst5; set-up: method as in PMID 11980628; settings: cited from earlier work
[6] = system: urinary free cortisol (UFC); settings: 15-day core study, 600 μg sc bid, cited from earlier work
sst1 = settings: cited from earlier work
[7] = safety population n=19, regardless of study-drug relationship
[8] = at some point during the extension, of six shifted
[9] = of 16 with normal FPG at extension baseline, at some point

NCCCC[C@@H]1NC(=O)[C@@H](Cc2c[nH]c3ccccc23)NC(=O)[C@H](c2ccccc2)NC(=O)[C@@H]2C[C@@H](OC(=O)NCCN)CN2C(=O)[C@H](Cc2ccccc2)NC(=O)[C@H](Cc2ccc(OCc3ccccc3)cc2)NC1=O [pasireotide] (cyclo([Hyp]([CO-Ethylenediamine])[Phg][dW]KY(Bn)F))
UFC, mean ± SD ([1]; Day 15, n=17, primary efficacy population, normal 55–276): 522 ± 302 nmol/24 h
Proportion of patients with normal UFC levels (UFC responders) ([1]; Month 6, 4 of 18 patients, primary efficacy analysis, 95 % CI 6.4–47.6): 22.2%
Proportion of patients with reduction in mean UFC but not to within normal range (UFC reducers) ([1]; Month 6, 6 of 18 patients): 33.3%
Proportion of patients with lower UFC than at core baseline ([1]; Month 6, 10 of 18 patients): 56%
UFC, mean ± SD ([1]; Month 6, n=11, primary efficacy population): 421 ± 340 nmol/24 h
UFC, mean ± SD ([1]; Month 12, n=4, primary efficacy population): 398 ± 220 nmol/24 h
UFC, mean ± SD ([1]; Month 24, n=4, primary efficacy population): 514 ± 456 nmol/24 h
Number of patients with >50 % reduction in mean UFC from core baseline ([1]; Month 24, of four patients on study drug): three
Number of patients with normalized UFC ([1]; Month 24, of the four patients who remained on study drug): one
Serum cortisol, mean ± SD (serum cortisol; Day 15, n=18, normal 221–690 (09:00 h)): 698 ± 161 nmol/L
Serum cortisol, mean ± SD (serum cortisol; Month 6, n=11): 559 ± 300 nmol/L
Plasma ACTH, mean ± SD (plasma ACTH): 12.4 ± 8.9 pmol/L
Ctrough ([2]; Month 6, UFC non-reducers, n=1): 5.2 ng/mL
level at 4320 h ([2]; Month 6, UFC reducers, n=6, SD): 19.1 ± 10.9 ng/mL
level at 4320 h ([2]; Month 6, UFC responders, n=4, LLOQ 150 pg/mL, SD): 17.4 ± 11.6 ng/mL
Hyperglycemia-related AEs, proportion of patients ([3]; 13/19, treatment period): 68%
Deaths during the study ([3]; in vivo): No patients died
Patients with grade 4 AEs ([3]; increased γ-glutamyltransferase, type 2 diabetes mellitus, both suspected drug related): Two
Patients with at least one AE during the study ([3]; n=19): All patients
Patients reporting a hyperglycemia-related adverse event ([3]; of 19): Thirteen
Discontinuation because of AE (new-onset type 2 diabetes mellitus) ([3]; one of 19 patients): 5.3%
Adverse event: Abdominal pain [3, 7]: 9 (47.4) n (%)
Adverse event: Diarrhea [3, 7]: 13 (68.4) n (%)
Adverse event: Dizziness [3, 7]: 5 (26.3) n (%)
Adverse event: Fatigue [3, 7]: 5 (26.3) n (%)
Adverse event: Headache [3, 7]: 7 (36.8) n (%)
Adverse event: Hyperglycemia [3, 7]: 11 (57.9) n (%)
Adverse event: Injection-site pain [3, 7]: 6 (31.6) n (%)
Adverse event: Injection-site pruritus [3, 7]: 5 (26.3) n (%)
Adverse event: Nausea [3, 7]: 12 (63.2) n (%)
Discontinuation because of unsatisfactory therapeutic effect ([3]; three of 19 patients, after 5–10 months): 15.8%
Discontinuation because of abnormal laboratory value ([3]; two of 19 patients: one increased HbA1c and glucose, one elevated UFC): 10.5%
Patients with HbA1c shifted to a higher category with levels <7% [4, 8]: three
Patients with HbA1c shifted to between 7% and 9% [4, 8]: three
Patients with post-baseline HbA1c shifted to a higher category ([4]; at some point during the extension, eight with baseline values): Six
Shifts to levels of HbA1c >9% ([4]; during the extension): no shifts
Patients with an increase in fasting plasma glucose level at some point during the extension ([4]; in vivo): All patients
Patients with improved FPG levels at their last assessment ([4]; in vivo): All patients
Patients whose FPG shifted to between 100 and <126 mg/dL (5.6 to <7.0 mmol/L) [4, 9]: six
Patients whose FPG shifted to between 126 and <200 mg/dL (7.0 to <11.1 mmol/L) [4, 9]: four
Patients whose FPG shifted to ≥200 mg/dL (≥11.1 mmol/L) [4, 9]: six
Patients with HbA1c shifted to >ULN but <7% at last assessment ([4]; of five remaining higher): four
Patients with HbA1c shifted to between 7% and 9% at last assessment ([4]; of five remaining higher): one
Patients remaining at a higher post-baseline HbA1c level at last assessment ([4]; of the six shifted): Five
Newly occurring QT of 450–480 ms [5]: One patient
Newly occurring QTcB of 450–480 ms [5]: another patient
QRS interval of >110 ms (not clinically significant) [5]: one patient
Affinity for sst2 (sst2): high affinity
Affinity for sst3 (sst3): high affinity
Affinity for sst5 (sst5): highest affinity
Proportion of patients with reduced UFC levels ([6]; 22/29 patients): 76%
Proportion of patients with normalized UFC ([6]; five patients): 17%
Affinity for sst1 (sst1): high affinity
